Laboratory results: US20220184000A1, “USE OF CANNABIDIOL IN THE TREATMENT OF DRAVET SYNDROME” (priority 2019, published 2022)

Assays:
Type in all cases: in vivo
Scn1a^−/− mice = experiment: Survival in Scn1a^−/− mice, Study I (acute model of Dravet syndrome); conditions: CBD-treated Scn1a^−/− mice; 100 mg/kg s.c. twice daily from P8; n=10; vehicle 15.5 days; Mantel-Cox p=0.003; FIG. 1B
Method: Following genotyping, animals were randomly divided into four groups WT vehicle-treated, WT CBD-treated, Scn1a^−/− vehicle-treated and Scn1a^−/− CBD-treated (n=10/group). They were injected subcutaneously twice daily with either CBD (100 mg/kg) or its vehicle (ethanol:Kolliphor®:0.9% saline=2:1:17) from P8 until P25 or death (whichever was earlier).
Animal suffering was minimised by employing a validated, welfare scoring system alongside a mathematical model to predict death. In this way, any animal for which the model predicted death could be sacrificed 0.5 day before enduring the maximal severity of the disease.
Additionally, surface temperature (ST) threshold was employed such that if the sum of the ST scores over the last 1.5 days, was equal to or greater than 3, the animal would be killed by cervical dislocation within 0.5 day.
In Study I, the welfare parameters were analysed using SPSS 24 (IBM SPSS Statistics®, UK), whilst survival data were analysed using GraphPad Prism 6 software (GraphPad Software, Inc., USA). Data obtained from welfare parameters were compared using a three-way ANOVA to observe the main effects of treatment, genotype and time, and their two-way and three-way interactions. […] All the data are expressed as mean±SEM. […]

Scn1a^+/− mice [1] = experiment: Survival / premature mortality in Scn1a^+/− mice, Study II (chronic model of Dravet syndrome)
Method: The animals were group housed throughout Study II except for 3 days during sucrose preference test when each animal was individually housed. This experiment was conducted in dark cycle (dim red light, 8:00-20:00 h). Male 129S-Scn1^atm1Kea/Mmjax heterozygote mice (Jackson Laboratory, USA) were bred with female wild type C57BL/6 mice (Charles River, UK) to obtain Scn1a^+/− and wild type (WT) littermate mice used in this study. At the end of the study, animals were humanely killed by cervical dislocation. […]
As seizure-related deaths in this model were unpredictable, animals were video monitored continuously (24 h×7 days) throughout the study and any mortality observed was cross checked with the available video footage to confirm the reason of death.
(§1) In Study II, the data were analysed in GraphPad Prism 6 software. […] Data obtained from rotarod, gait, social interaction (active interaction), EPM, sucrose preference, RAM (RME) tests were normally distributed and the differences between the three groups were analysed by one-way ANOVA. […] Parametric data are presented in scattered dot plot in the figures and are expressed as mean±SEM. Non-parametric data are presented in box plot in the figures and are expressed as median, min to max, and interquartile range (IQR). […]

Scn1a^+/− mice [2] = experiment: Static beam test (motor function), Study II; conditions: CBD 100 mg/kg s.c. twice daily
Method: (§2) Here, Scn1a^+/− were randomly divided into two groups and subcutaneously injected with either CBD (100 mg/kg twice daily; n=12) or its vehicle (ethanol:Kolliphor®:0.9% saline=2:1:17; n=29) from P8 onwards until P52 or death (whichever was earlier).
The static beam task was further employed to analyse balance and coordination (Sedy, Urdzikova, Jendelova, & Sykova, 2008), where the animals were required to walk along a cylindrical elevated beam (100 cm long, 0.9 cm diameter and 50 cm height from floor) and enter a dark enclosure at the beam end. The mice were habituated to the task for three consecutive days before the test day. […] The test was video monitored (Sony DCR-SX21E) and blinded offline analysis was conducted (Observer XT 12, Noldus, The Netherlands) to evaluate the average number of foot slips made from two consecutive trials.
as §1

Scn1a^+/− mice [3] = experiment: Sucrose preference test, depression-like behaviour, Study II; conditions: CBD 100 mg/kg s.c. twice daily
Method: as §2
The sucrose preference test was carried out to assess the depression-like behaviour (Serova, Mulhall, & Sabban, 2017). The animals were separately housed during this test. Here, 24 hours before the test, animals were trained to drink from two bottles each containing 2% sucrose. On the first day of test, the animals were provided with a pre-weighed bottle of 2% sucrose and another containing a pre-weighed volume of tap water. The positions of the bottles were swapped after 24 hours to avoid any side preferences. After 48 hours, both bottles were weighed, and sucrose preference was calculated by using the following formula: […]
as §1

In the case of `C=C(C)[C@@H]1CCC(C)=C[C@H]1c1c(O)cc(CCCCC)cc1O` [CBD, cannabidiol], the median survival (Scn1a^−/− mice) is reported as 16.25 days, the “survival curve, Scn1a^+/− vehicle-treated versus CBD-treated” value (Scn1a^+/− mice [1]; CBD 100 mg/kg s.c. twice daily from P8 until P52 or death, n=12 CBD, n=29 vehicle, Mantel-Cox p=0.04, FIG. 2A) is reported as “Survival was significantly less in Scn1a^+/− vehicle-treated group” and the “animals that died before the completion of the study (P52)” value (Scn1a^+/− mice [1]; Scn1a^+/− CBD-treated, 2 of 12, CBD 100 mg/kg s.c. twice daily from P8, vehicle approximately 66% (19 of 29), p<0.0001, FIG. 2B) is reported as 17%. For the same molecule, the “number of foot slips, Scn1a^+/− CBD-treated versus Scn1a^+/− vehicle-treated” value (Scn1a^+/− mice [2]; p=0.23, FIG. 3B) was “no significant difference”, the “number of foot slips, Scn1a^+/− CBD-treated versus WT vehicle-treated” value (Scn1a^+/− mice [2]; p=0.48) was “no significant difference” and the “sucrose preference, Scn1a^+/− CBD-treated versus WT vehicle-treated” value (Scn1a^+/− mice [3]; p=0.36) was “similar”. The “sucrose preference, Scn1a^+/− vehicle-treated compared to Scn1a^+/− CBD-treated” value (Scn1a^+/− mice [3]; statement describes vehicle group relative to CBD group (n=10), p=0.01, FIG. 4D) was “reduced preference for sucrose”.
